Several values for one entry are separate records, joined by “and”; a condition that tells them apart may be missing. Identical values can stand only once.

In one series the test system is MOPG-406. Kind of series: Antitumor effect on grafted hemoblastoses (MOPC-406), extension of lifespan. The class given is in vivo, mice and rats. Particulars: in vivo.
Series [1] deals with Viral leukosis Mazurenko LMC-1. Briefly: Antitumor effect on grafted hemoblastoses (LMC-1), extension of lifespan. It counts as in vivo, mice and rats. Particulars: in vivo.
In series [2] the test system is DNA of sarcoma S-37 cells. Briefly: Cross-linking and ruptures in DNA of tumoral cells (alkaline saccharose gradient sedimentation).
Series [3] has as its system adrenalectomized rat youngsters. Briefly: Lifespan of adrenalectomized rat youngsters (biological test for the glucocorticoidal activity). The class given is in vivo. Particulars: 25-days adrenalectomized rats.
In the next series the test system is mice. Particulars: mouse, in vivo.
In a further series the test system is S-37. Briefly: Antitumor effect on grafted solid tumor S-37. It counts as in vivo, mice and rats. Particulars: in vivo.
Series [4] deals with cytoplasmatic receptors of glucocorticoids in human lung cancer. Kind of series: Inhibition of specific combining of [^3 H]-dexamethazone, human lung cancer. It counts as binding. An excerpt: The inhibition, thereby, of a specific combining of [^3 H]-dexamethazone in tumors of animals reaches 70-100%. 11-Desoxy-17-α-hydroxy-21-[p-di(2-chloroethyl)aminophenylacetate] corticosterone also reacts with cytoplasmatic receptors of glucocorticoids in tumors in human beings.

Series [5] deals with DMBA-induced mammary tumors of rats. Briefly: Effect on DMBA-induced breast tumors in repeated treatment courses. The class given is in vivo. The text has this: For the study of the antitumor activity of the compounds according to the present invention use was made of regrafted hemoblastoses, grafted solid tumors, induced and spontaneous tumors of mice and rats. The following models were used: L 1210, P-388, hemocytoblastosis La, MOPC-406, viral lympholeukosis Mazurenko LMC-1, Ca-755, mammary carcinoma metastasizing into lungs KML, alveolar mammary cancer RMK-1, small intenstine adenocarcinoma AKATON, large intestine adenocarcinoma AKATOL, Lewis lung carcinoma LL, lung adenocarcinoma RL-67, hepatomae G-22c, G-60, G-61, sarcomae S-37 and S-180, DMBA (dimethylbenzanthracene)-induced and spontaneous mammary tumors, and […] (dimethylhydrazine)-induced tumors of the large intestine.
The compounds were administered to the animals hypodermally in kernel oil. For the purpose of comparison, a known hormonocytostatic estracyte (estra-1,3,5-(10)treine-3,17β-diol-3N-[bis-(2-chloroethyl)carbamate-17-sodium phosphate] was used which was administered hypodermally in a solution of a 0.9% NaCl, chlorphenacyl and chloroambucyl which were administered intraperitoneally in a 10% solution of ethanol, sarcolysine (β-[p-di(2-chloroethyl)aminophenyl]-α-alanine hydrochloride)--intraperitoneally in a 0.9% solution of NaCl, prednisolone (pregnadiene-1,4-triol-11β,17α,21-dione-3,20)--per os in a starch size.
Criteria of the antitumor activity of the compounds according to the present invention are: extension of the lifespan of the animals (ELA, %) and tumor growth inhibition (TGI, %). [formula] T--average lifespan of the treated animals; C--average lifespan of the control animals. [formula] O--average tumor volume in the group of treated animals; K--average tumor volume in the group of control animals.
In the case of using spontaneous or induced tumors, by means of carcinogenic substances, the criteria of the antitumor effect are: TGI, % or decrease in the tumor size, %, as compared to its initial value. The treatment of spontaneous and induced tumors was initiated after achieving, by these tumors, of a particular size excluding the possibility of a spontaneous regression.

The test system of a further series is Hepatoma G-61. Briefly: Antitumor effect on grafted hepatoma G-61. It counts as in vivo, mice and rats. Particulars: in vivo.
A further series concerns animals. Kind of series: Estral response in animals. Particulars: in vivo. The text has this:
The hormonal effect of 11-desoxy-17α-hydroxy-21-[p-di-(2-chloroethyl)aminophenylacetate] corticosterone is associated with exhibition of a glucocorticoidal activity thereby.

`C[C@]12CCC(=O)C=C1CC[C@@H]1[C@@H]2CC[C@@]2(C)[C@H]1CC[C@]2(O)C(=O)COC(=O)Cc1ccc(N(CCCl)CCCl)cc1` [11-desoxy-17α-hydroxy-21-[p-di(2-chloroethyl)-aminophenylacetate] corticosterone]: the “Extension of the lifespan of the animals (ELA)” value with MOPG-406 is 76%; in series [1], 344%. The molecule also had a cure in series [1] of 33%. In addition, the “number and duration of retention of cross-linking in DNA molecules of S-37 cells” value in series [2] is “superior to chlorophenacyl”. The “extension of lifespan of adrenalectomized rat youngsters” value in series [3] amounted to 113%. In the series with mice, the “toxicity lower than that of chlorophenacyl” value is 3 times. For the same molecule, the “Extension of the lifespan” value in the series on S-37 stood at 42%. The “Maximum tumor growth inhibition” value is given as 99% in the series on S-37, 99% with S-37 (45 mg/kg) and 89% in the series on Hepatoma G-61. Also, in the series on S-37, the Tumor growth inhibition is 99% and 94% and 91%. The recovery in the series with S-37 is 28%. Besides, in series [4], the “inhibition of specific combining of [^3 H]-dexamethazone” value worked out at 83%. Moreover, in [5] (DMBA-induced, rats, 15 mg/kg/24 h × 5, 2 courses, 5 weeks interval), the Increased lifespan turned out to be 18%. Further, the “Decrease or increase (+) of the tumor, % of the initial one” value is 33% in series [5] (DMBA-induced, rats, 15 mg/kg/24 h × 5, 2 courses, 5 weeks interval, week 1); 32% in series [5] (DMBA-induced, rats, 15 mg/kg/24 h × 5, 2 courses, 5 weeks interval, week 2); 11% in [5] (DMBA-induced, rats, 15 mg/kg/24 h × 5, 2 courses, 5 weeks interval, week 3); 24% in [5] (DMBA-induced, rats, 15 mg/kg/24 h × 5, 2 courses, 5 weeks interval, week 4); “+26%” in series [5] (DMBA-induced, rats, 15 mg/kg/24 h × 5, 2 courses, 5 weeks interval, week 5); 23% in series [5] (DMBA-induced, rats, 15 mg/kg/24 h × 5, 2 courses, 5 weeks interval, week 6). For the same molecule, the “Decrease or increase (+) of the tumor, % of the initial one” value in series [5] (DMBA-induced, rats, 15 mg/kg/24 h × 5, 2 courses, 5 weeks interval, week 7) was “+3%”; in [5] (DMBA-induced, rats, 15 mg/kg/24 h × 5, 2 courses, 5 weeks interval, week 8), 13%. The “reduction in size of induced tumors in breasts” value in [5] (compared to the size prior to the treatment) is “causes reduction in size of induced and spontaneous tumors”. Moreover, the estral response result with animals was “short-time estral response”.

For the origin of these results see patent publication US4933332A, “11-desoxy-17-α-hydroxycorticosterone derivatives” (priority 1988, dated 1990).
